Legend:
KDR (VEGFR2) = molecular target: T1, KDR (VEGFR2) (Homo sapiens, UniProt P35968); assay: Test (c) in vitro phospho-KDR ELISA assay in HUVECs; format: cell-based; settings: HUVECs stimulated with VEGF, read-out: IC50 versus phospho-tyrosine formation in KDR
T1 construct: phosphorylation of KDR expressed in human umbilical vein endothelial cells (HUVECs); host or cells: HUVECs
Method: (c) In Vitro Phospho-KDR ELISA Assay
This assay uses a conventional ELISA method to determine the ability of test compounds to inhibit phosphorylation of tyrosine in KDR (VEGFR2).
The cells were incubated overnight at 37° C. with 7.5% CO2 to allow adherence to the well surface. […] The plates were incubated at 37° C. for 2.5 hours.
Test compounds were prepared as 10 mM stock solutions in DMSO and serially diluted with DMSO as required. Aliquots (3 μl) of each concentration of test compound were diluted with ‘serum fiee medium’ (300 μl). Aliquots (50 μl) of each resultant compound concentration were added to the cells in each well. […] The cells were incubated for 90 minutes at 37° C. with 7.5% CO2.
The resultant cells were stimulated with VEGF using the following procedure. A lyopliilised powder of VEGF (Sigma-Aldrich; Catalogue No. V7259) was mixed with PBS containing 0.1% filter-sterilised BSA (0.1% BSA/PBS) to provide a stock solution of 10 μg/ml of VEGF. A dilution of this stock solution into ‘serum free medium’ provided a 1000 ng/ml VEGF solution. Aliquots thereof (50 μl) were added to all wells. The cells were incubated at 37° C. with 7.5% CO2 for 5 minutes. […] The resultant tissue culture plates were shaken for 5 minutes at ambient temperature to ensure full lysis before being frozen on dry-ice and stored at −20° C. until required.
The antibody was diluted in PBS to a concentration of 8 μg/ml, aliquots (100 μl) were added to each well and the plates were stored at ambient temperature for 16 hours. The wells were washed 3 times (1 minute soak each time) with 300 μl per well of PBST. The wells were treated with PBS containing 1% filter-sterilised BSA (1% BSA/PBS; 200 μl) at ambient temperature for 1 hour and subsequently washed 3 times with 300 μl per well of PBST.
The tissue culture plates with frozen cell lysate were allowed to warm to 0° C. Aliquots (100 μl) of the HUVEC cell lysate were added and the ELISA plates were agitated at ambient temperature for 3 hours. The wells were washed 3 times with 300 μl per well of PBST. […] Aliquots (100 μl) of the resultant dilution were added to each well and the plates were agitated at ambient temperature for 2 hours. The plates were washed 4 times with 300 μl per well of PBST. […] Aliquots (50 μl) of chemiluminescent substrate solution were added to each of the wells, the plates were agitated for 2 minutes and luminescence was read on a SpectraFluor is Plus plate reader (Tecan UK Ltd.). The resultant data were analysed to determine the IC50 value of each test compound.

PDGFRβ = molecular target: T2, PDGFRβ (Homo sapiens, UniProt P09619); assay: Test (b) in vitro phospho-Tyr751 PDGFRβ ELISA assay in MG63 osteosarcoma cells; format: cell-based; settings: MG63 osteosarcoma cells stimulated with PDGFBB, read-out: IC50 versus phospho-Tyr751 formation in PDGFRβ
T2 construct: endogenous in cells; host or cells: MG63 osteosarcoma cells (ATCC)
T2 sequence (P09619 33-1106): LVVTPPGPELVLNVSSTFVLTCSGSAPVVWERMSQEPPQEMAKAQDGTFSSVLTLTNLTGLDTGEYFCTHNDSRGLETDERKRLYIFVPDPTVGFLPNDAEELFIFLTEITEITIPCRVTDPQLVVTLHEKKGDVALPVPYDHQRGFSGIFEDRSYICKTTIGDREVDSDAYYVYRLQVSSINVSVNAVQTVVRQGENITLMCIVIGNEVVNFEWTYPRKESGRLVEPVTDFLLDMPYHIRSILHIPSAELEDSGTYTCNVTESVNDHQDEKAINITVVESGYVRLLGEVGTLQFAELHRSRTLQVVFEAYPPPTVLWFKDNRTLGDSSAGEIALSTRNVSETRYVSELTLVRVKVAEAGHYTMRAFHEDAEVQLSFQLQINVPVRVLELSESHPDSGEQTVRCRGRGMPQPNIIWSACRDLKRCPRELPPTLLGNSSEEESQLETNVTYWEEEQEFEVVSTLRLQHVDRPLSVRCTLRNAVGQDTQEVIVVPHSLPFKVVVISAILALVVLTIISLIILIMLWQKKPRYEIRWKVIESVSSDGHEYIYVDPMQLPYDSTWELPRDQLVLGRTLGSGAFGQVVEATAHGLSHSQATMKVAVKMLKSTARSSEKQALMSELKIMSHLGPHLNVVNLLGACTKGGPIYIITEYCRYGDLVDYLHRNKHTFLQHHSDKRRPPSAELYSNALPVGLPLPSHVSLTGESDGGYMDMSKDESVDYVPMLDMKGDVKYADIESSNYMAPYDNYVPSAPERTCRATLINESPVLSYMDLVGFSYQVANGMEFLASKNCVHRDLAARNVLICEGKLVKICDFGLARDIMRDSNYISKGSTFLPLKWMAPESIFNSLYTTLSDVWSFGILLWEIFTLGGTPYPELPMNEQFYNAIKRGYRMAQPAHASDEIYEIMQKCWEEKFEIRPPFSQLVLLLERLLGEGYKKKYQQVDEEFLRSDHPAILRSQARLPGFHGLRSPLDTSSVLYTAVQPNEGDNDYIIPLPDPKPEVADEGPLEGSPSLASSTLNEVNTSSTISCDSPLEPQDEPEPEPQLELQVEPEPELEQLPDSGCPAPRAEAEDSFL
Method: (b) In Vitro Phospho-Tyr751 PDGFRβ ELISA Assay
This assay uses a conventional ELISA method to determine the ability of test compounds to inhibit phosphorylation of tyrosine in PDGFRβ.
Aliquots (100 μl) of culture media were placed in the outer wells to minimise edge effects. The cells were incubated overnight at 37° C. with 7.5% CO2 to allow the cells to adhere to the wells.
Aliquots (3 μl) of each compound concentration were added to test medium (300 μl) to create a second dilution range. Aliquots (16 μl) of each resultant compound concentration were added to the cells in each well. “Maximum” control cells received a dilution of DMSO plus test medium only. “Minimum” control cells received a reference PDGFR inhibitor (16 μl). The cells were incubated for 90 minutes at 37° C. with 7.5% CO2.
The resultant cells were stimulated with PDGFBB using the following procedure. A lyophilised powder of PDGFBB, (Sigma-Aldrich; Catalogue No. P4306) was mixed with sterile water to provide a stock solution of 10 μg/ml of PDGFBB. […] Aliquots thereof (44 μl) were added to compound treated cells and to the “Maximum” control cells. The “Minimum” control cells received medium only. The cells were incubated at 37° C. with 7.5% CO2 for 5 minutes. […] The resultant tissue culture plates were shaken for 5 minutes at ambient temperature to ensure full lysis and then frozen at −20° C. until required.
Aliquots (50 μl) were added to each well and the plates were placed at 4° C. for 16 hours. The wells were washed 5 times (1 minute soak each time) with 300 μl per well of PBST. The wells were treated with 50 μl of 3% BSA in PBST at ambient temperature for 1 hour and subsequently washed twice with 300 μl per well of PBST.
The tissue culture plates with frozen cell lysate were allowed to warm to 0° C. Aliquots (50 μl) of the MG63 cell lysate were added to the ELISA plates. Each sample was duplicated on separate plates. The ELISA plates were agitated at ambient temperature for 2 hours. The wells were washed twice with 300 μl per well of PBST. […] Aliquots (50 μl) of the antibody solutions were added to each of the wells. The plates were agitated at ambient temperature for 1 hour. The plates were washed twice with 300 μl per well of PBST. […] Aliquots (50 μl) of the resultant dilution were added to each well and the plates were agitated at ambient temperature for 1 hour. The plates were washed 5 times with 300 μl per well of PBST. […] Aliquots (50 μl) of chemiluminescent substrate solution were added to each of the wells, the plates were agitated for 2 minutes and luminescence was read on a SpectraFluor Plus plate reader (Tecan UK Ltd., Reading, Berkshire, UK). Analysis for each of the compounds was completed by determining a ratio of the ‘phospho antibody’ plate reading to the ‘total antibody’ plate reading for each test sample and these ratios were plotted to determine the IC50 value of each test compound.

PDGF receptor kinase = settings: literature (Nature Reviews 2002; Cancer Research 1996); cited from earlier work
[1] = test system: human glioblastoma lines U343 and U87; settings: U343 and U87 injected into the brains of nude mice; Cancer Research 2000; cited from earlier work
[2] = test system: dermatofibrosarcoma protruberans cell cultures; settings: Cancer Research 2001; cited from earlier work

T1 sequence (P35968 20-1356): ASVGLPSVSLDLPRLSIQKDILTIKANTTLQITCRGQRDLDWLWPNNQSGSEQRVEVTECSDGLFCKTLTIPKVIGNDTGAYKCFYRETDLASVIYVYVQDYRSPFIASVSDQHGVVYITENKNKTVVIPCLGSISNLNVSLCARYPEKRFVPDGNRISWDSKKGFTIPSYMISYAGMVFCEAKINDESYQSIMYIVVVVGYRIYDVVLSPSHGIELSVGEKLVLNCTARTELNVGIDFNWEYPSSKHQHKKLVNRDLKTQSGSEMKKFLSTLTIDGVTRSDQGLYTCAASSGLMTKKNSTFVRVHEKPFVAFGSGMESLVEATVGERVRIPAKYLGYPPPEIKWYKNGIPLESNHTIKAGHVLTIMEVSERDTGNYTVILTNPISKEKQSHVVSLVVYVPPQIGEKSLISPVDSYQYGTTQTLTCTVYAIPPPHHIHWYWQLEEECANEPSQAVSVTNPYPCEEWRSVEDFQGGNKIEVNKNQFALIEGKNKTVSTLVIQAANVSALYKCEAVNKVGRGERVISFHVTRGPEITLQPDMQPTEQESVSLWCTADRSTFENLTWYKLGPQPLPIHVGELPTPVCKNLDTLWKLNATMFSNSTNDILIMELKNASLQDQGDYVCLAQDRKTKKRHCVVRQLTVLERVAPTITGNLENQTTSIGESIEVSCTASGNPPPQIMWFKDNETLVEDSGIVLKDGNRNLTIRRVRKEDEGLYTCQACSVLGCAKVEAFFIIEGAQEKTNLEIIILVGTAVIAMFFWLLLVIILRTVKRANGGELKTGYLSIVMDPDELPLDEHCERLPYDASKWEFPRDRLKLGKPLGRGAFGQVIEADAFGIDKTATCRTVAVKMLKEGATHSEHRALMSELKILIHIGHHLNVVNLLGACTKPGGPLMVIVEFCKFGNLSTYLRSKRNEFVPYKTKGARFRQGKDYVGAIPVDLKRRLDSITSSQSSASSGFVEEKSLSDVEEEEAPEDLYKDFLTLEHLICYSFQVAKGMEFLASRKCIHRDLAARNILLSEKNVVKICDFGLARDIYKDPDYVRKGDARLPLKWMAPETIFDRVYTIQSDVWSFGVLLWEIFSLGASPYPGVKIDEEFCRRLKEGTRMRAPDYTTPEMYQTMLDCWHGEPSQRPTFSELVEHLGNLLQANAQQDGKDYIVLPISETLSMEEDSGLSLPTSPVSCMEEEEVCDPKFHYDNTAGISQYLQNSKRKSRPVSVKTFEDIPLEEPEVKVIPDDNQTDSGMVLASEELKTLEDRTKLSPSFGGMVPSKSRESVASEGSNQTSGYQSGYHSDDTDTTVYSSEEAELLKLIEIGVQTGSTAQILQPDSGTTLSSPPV

SMILES	IC50 (KDR (VEGFR2)) [nM]	IC50 (PDGFRβ) [nM]	inhibition of PDGF receptor kinase activity (PDGF receptor kinase)	inhibition of growth of glioblastoma tumours [1]	inhibition of in vivo growth of dermatofibrosarcoma protruberans cell cultures [2]
CCn1cc(NC(=O)Cc2ccc(Oc3ccnc4ccccc34)cc2OC)cn1 [N-(1-ethyl-1H-pyrazol-4-yl)-2-(2-methoxy-4-quinolin-4-yloxyphenyl)acetamide]	> 1000	~20			
CCn1cc(NC(=O)Cc2ccc(Oc3ccnc4cc(OC)c(C#N)cc34)cc2OC)cn1 [N-(1-ethyl-1H-pyrazol-4-yl)-2-[4-(6-cyano-7-methoxyquinolin-4-yloxy)-2-methoxyphenyl]acetamide]	~750	~2			
CCn1cc(NC(=O)Cc2ccc(Oc3ccnc4cc(OC)c(C#N)cc34)cc2)cn1 [N-(1-ethyl-1H-pyrazol-4-yl)-2-[4-(6-cyano-7-methoxyquinolin-4-yloxy)phenyl]acetamide]	~200	~2			
CCn1cc(NC(=O)Cc2ccc(Oc3ccnc4cc(OC)c(C(=O)N(C)C)cc34)cc2)cn1 [N-(1-ethyl-1H-pyrazol-4-yl)-2-{4-[6-(N,N-dimethylcarbamoyl)-7-methoxyquinolin-4-yloxy]phenyl}acetamide]	~700	~3			
COc1cc(Oc2ccnc3ccc(F)cc23)ccc1CC(=O)Nc1n[nH]c(C)c1C [N-(4,5-dimethyl-1H-pyrazol-3-yl)-2-[4-(6-fluoroquinolin-4-yloxy)-2-methoxyphenyl]acetamide]	> 2000	~10			
CNC(=O)c1cc2c(Oc3ccc(CC(=O)Nc4noc(C)c4C)c(OC)c3)ccnc2cc1OC [N-(4,5-dimethylisoxazol-3-yl)-2-{2-methoxy-4-[7-methoxy-6-(N-methylcarbamoyl)quinolin-4-yloxy]phenyl}acetamide]	~1000	~5			
CCc1c[nH]nc1NC(=O)Cc1ccc(Oc2ccnc3cc(OC)c(OC)cc23)cc1OC [N-(4-ethyl-1H-pyrazol-3-yl)-2-[4-(6,7-dimethoxyquinolin-4-yloxy)-2-methoxyphenyl]acetamide]	> 2000	~5			
COc1cc(Oc2ccnc3ccc(F)cc23)ccc1CC(=O)Nc1cc(C)[nH]n1 [N-(5-methyl-1H-pyrazol-3-yl)-2-[4-(6-fluoroquinolin-4-yloxy)-2-methoxyphenyl]acetamide]	> 2000	~10			
Cc1ccc(NC(=O)c2ccc(CN3CCN(C)CC3)cc2)cc1Nc1nccc(-c2cccnc2)n1 [imatinib]			shown to inhibit PDGF receptor kinase activity	inhibits the growth of glioblastoma tumours	inhibits the in vivo growth of dermatofibrosarcoma protruberans cell cultures

From US7973164B2, “Quinoline derivatives” (AstraZeneca AB, priority 2006, dated 2011)
